Tests used:
[1] = system: blood-brain barrier permeability; assay: Brain distribution of DiR-labelled Angiopep-2-modified glycolipid nano-delivery system after SC79 in in situ glioma model; assay type: in vivo, BABL/c nude mice; conditions: SC79 5 mg/kg tail vein 24 hours before the DiR-labelled system; brain taken after 4 hours; vs tumor-bearing control group
Method: FIG. 12: Regulation of increase in the blood-brain barrier permeability and enhancement of distribution of Angiopep-2-modified glycolipid nano-delivery system in the brain by SC79. SC79 was injected into tail veins of tumor-bearing animals at an administration dose of 5 mg/kg. After 24 hours, the Angiopep-2-modified glycolipid nano-delivery system encapsulated with near-infrared fluorescent probe DiR was injected into tail veins. After 4 hours, the intact brain of the nude mice was taken by cardiac perfusion.
Male BABL/c nude mice (20+2 g) were used as the model animals. U87-luci glioma cells expressing luciferase were inoculated in the striatum area of nude mice at a concentration of 5×10^5 cells/5 μL by means of a brain stereotaxic instrument (inoculation coordinates, 0.8 mm on the anterior side of bregma, 2 mm on the right side, and 3 mm in depth), to construct an in situ glioma model. SC79 diluted with 0.2% injection grade Tween 80 solution was injected into tail veins at an administration dose of 5 mg/kg. After 24 hours, the Angiopep-2-modified glycolipid nano-delivery system encapsulated with near-infrared fluorescent probe DiR was injected into tail veins. After 4 hours, the intact brain of the nude mice was taken by cardiac perfusion. […]

[2] = system: tight junction proteins Claudin-5/Occludin in bEnd.3 cells; assay: Claudin-5/Occludin immunofluorescence in physiological blood-brain barrier Transwell model after SC79; assay type: cell-based; conditions: SC79 0, 5, 10 μg/mL, 24 hours
Method: FIG. 8: In vitro dose-dependent down-regulation of expression of tight junction proteins Claudin-5/Occludin by SC79. A Transwell model of brain microvascular endothelial cells bEnd.3 was used to mimic the physiological blood-brain barrier. SC79 at different concentrations (0, 5 μg/mL, 10 μg/mL) was applied to the Transwell chamber. After 24 hours, the bEnd.3 cells on the membrane of the Transwell chamber were immunofluorescence stained.
(§1) Brain microvascular endothelial cells bEnd.3 were used as model cells of a blood-brain barrier. 0.5 mL suspension of well-grown bEnd.3 cells was inoculated in the chamber of a 12-well Transwell plate with a pore size of 0.4 μm at a cell density of 1×10^5/well. 1.5 mL of fresh culture medium was supplemented in the outer chamber. The culture medium was refreshed every other day. Incubation was continued for 15 days at 37° C. and 5% CO2. When the cell transmembrane resistance value was greater than 150 ohm·cm^2 (Ω·cm^2), it may be regarded that a model of physiological blood-brain barrier was obtained.
A protein kinase B activator SC79 at different concentrations (0, 5 μg/mL, 10 μg/mL) was added into the Transwell chamber in the model of physiological blood-brain barrier. […]

neurons = conditions: mouse model of permanent local cerebral ischemia; cited from earlier work
[3] = system: bEnd.3 cells; bEnd.3 co-incubated with U87 MG; assay: Real-time transmembrane resistance of physiological and pathological blood-brain barrier models after SC79; assay type: cell-based; conditions: SC79 5 μg/mL
Method: FIG. 9: In vitro time-dependent regulation of transmembrane resistance of the blood-brain barrier by SC79. A Transwell model of brain microvascular endothelial cells bEnd.3 was used to mimic the physiological blood-brain barrier. A Transwell model of co-incubated brain microvascular endothelial cells bEnd.3 and glioma cell U87 MG was used to mimic the pathological blood-brain barrier. SC79 (5 μg/mL) was applied to the Transwell chamber. The cell transmembrane resistance was real-time monitored by a cell resistance meter (n=5).
as §1, with “When the cell transmembrane resistance value was greater than 150 ohm·cm^2 (Ω·cm^2), it may be regarded that a model of physiological blood-brain barrier was obtained.” left out
The physiological blood-brain barrier and the pathological blood-brain barrier, as respectively constructed according to the procedures described in the above sections of 1 and 2 of Example 2, were used as a model, respectively. […] The cell transmembrane resistance was real-time monitored.

[4] = system: brain microvascular endothelial cells bEnd.3; assay: Transmembrane resistance of physiological blood-brain barrier Transwell model, SC79 dose dependence; assay type: cell-based; conditions: SC79 0, 5, 10 μg/mL; 24 hours; n=5
Method: A Transwell model of brain microvascular endothelial cells bEnd.3 was used to mimic the physiological blood-brain barrier. SC79 at different concentrations (0, 5 μg/mL, 10 μg/mL) was applied to the Transwell chamber. After 24 hours, the cell transmembrane resistance was detected by a cell resistance meter (n=5).
as §1
A protein kinase B activator SC79 at different concentrations (0, 5 μg/mL, 10 μg/mL) was added into the Transwell chamber in the model of physiological blood-brain barrier. After 24 hours of the drug action, the Transwell chamber with bEnd.3 cells grown was transferred to another 12-well plate, and washed with PBS for 3 times. […] After the cells were equilibrated at 37° C. for 15 minutes, the cell transmembrane resistance was detected by a cell resistance meter.

For `CCOC(=O)C1=C(N)Oc2ccc(Cl)cc2C1C(C#N)C(=O)OCC` (stereo not drawn) [SC79], the “distribution of Angiopep-2-modified glycolipid nano-delivery system in the brain” value [1] is given as “increased”, the “expression of tight junction proteins Claudin-5/Occludin” value [2] is given as “promotes down-regulation of expression of tight junction proteins” and the survival of neurons (neurons) is given as “increases the survival of neurons”. The “effect in increasing the blood-brain barrier permeability” value ([3]; after 24 hours of the drug action) was “most significant effect”, the “cell transmembrane resistance over time” value ([3]; physiological and pathological models, real-time) was “decreased in a time-dependent manner” and the cell transmembrane resistance [4] was “dose-dependent regulation of transmembrane resistance”.
